Holding throughout (test): growth of human tumour cells (NCI), 48 h
Experiment [1] relates to 786-0 renal.
Experiment [2] relates to A549 NSCLC.
The test system of experiment [3] is CCRF-CEM leukemia.
Experiment [4] has as its system HCC-2998 colon.
Experiment [5] relates to MALME-3M melanoma.
Experiment [6] concerns SW-620 colon.
Experiment [7] concerns UACC-257 melanoma.
Experiment [8] concerns UO-31 renal.
Experiment [9] has as its system RPMI-8226 leukemia.

The results in this text go back to PubChem BioAssay (NCI).

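Five compound concentrations were applied to cells in 96-well plates for 48 hours; endpoints were derived by simple linear interpolation of the resulting dose-response curve. Abbreviation: GI50, concentration required for 50% inhibition of growth. TGI denotes the concentration required for complete inhibition of growth.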

`CC1(C)CC(=O)C(/C(=N/NC(=S)NN)C(=O)Nc2nc3ccc([N+](=O)[O-])cc3s2)C(=O)C1`: the TGI in experiment [1], in [2], in [3], in [4], in experiment [5] and in [6] was over 100 µM throughout. Moreover, the TGI in experiment [7] and in [8] was over 100 µM in each case.
As to `COC(=O)[C@@]1(C(C)CC(=O)O)CCCCC1=O` (some centres undefined), the TGI was over 100 µM in experiment [1]; over 100 µM in [2]; over 100 µM in experiment [3]; over 100 µM in [4]; over 100 µM in experiment [5]; 82 µM in experiment [9]. The TGI in experiment [7] and in experiment [8] was over 100 µM each time.
Consider `O=C(c1nc2ccccc2[nH]c1=O)C(O)c1ccccc1` (centres undefined), for which the TGI in experiment [1], in [2], in [3], in experiment [4], in experiment [5] and in experiment [9] was over 100 µM in each case. Further, the TGI in experiment [6], in experiment [7] and in experiment [8] was over 100 µM in each case.
As to `NC(=O)c1csc(C2OC(COP(=O)(O)CP(=O)(O)OCC3OC(n4cnc5c(N)ncnc54)C(O)C3O)C(O)C2O)n1` (centres undefined), the TGI in [1], in [2], in [3], in experiment [4], in [5] and in [9] was over 100 µM each time. Moreover, the TGI in experiment [6], in experiment [7] and in [8] was over 100 µM each time.
With `CCCCCCCCCCCCC(Br)C(=O)NCC(N)=O` (centres undefined), the TGI in [1] amounted to 20.9 µM; in [2], 34.7 µM; in [3], 66.3 µM; in [4], 31 µM; in experiment [5], 28 µM; in experiment [6] it was 52.9 µM. Further, the figures for the TGI in experiment [7] and in experiment [8] were 24.7 µM and 6.92 µM, respectively.
As for `COc1ccc(-c2cc(C(=O)Nc3ccc(C)c(C)c3)nc(NC#N)n2)cc1`, the TGI in experiment [1], in [2], in experiment [3], in experiment [5], in [9] and in [6] was over 100 µM in each case. Besides, the TGI in experiment [7] and in experiment [8] was over 100 µM in each case.
Turning to `CCCCC1(C)C=C/C(=C2/C(=O)O/C(=C\C(=O)O)C2=O)O1` (centres undefined), the TGI in experiment [1], in [2], in [3], in [5], in [9] and in [6] was over 100 µM each time. Besides, the TGI in experiment [7] and in [8] was over 100 µM throughout.
In the case of `Cc1ccc(C)c(N2C(=O)C(=O)C(c3nc4ccccc4s3)/C(=N/NC(=O)NN)C2=O)c1` (centres undefined), the TGI in experiment [1], in experiment [2], in experiment [3], in experiment [4], in experiment [5] and in [6] was over 100 µM throughout. The TGI in [7] and in experiment [8] was over 100 µM each time.
As to `CC1(c2ccccc2Cl)C(C#N)C(=O)NC(=O)C1C#N` (centres undefined), the TGI in experiment [1] was over 100 µM; in [2] it was over 100 µM; in [3], over 100 µM; in [4], over 100 µM; in experiment [5] it was over 100 µM; in experiment [9], 59.6 µM. The TGI in [6], in experiment [7] and in experiment [8] was over 100 µM each time.
On to `C=C1CCC2[C@@H](CCC3[C@]2(C)CCC[C@]3(C)C(=O)OC)C1CC=O` (some centres undefined), for which the TGI in experiment [1] was 33.1 µM; in experiment [2] it was 42.5 µM; in [3] it was 35.2 µM; in [5], 37.5 µM; in experiment [9], 33.4 µM; in experiment [6], 35 µM. The values for the TGI in experiment [7] and in [8] were 31 µM and 28.9 µM, respectively. Besides, the GI50 was 21 µM in experiment [2], 8.28 µM in [9] and 14.8 µM in experiment [8].
Consider `COc1ccc(CCC2c3cc(OC)c(OC)cc3CCN2C)cc1OC` (centres undefined), for which the TGI in [1], in [2], in [3], in [4], in experiment [5] and in experiment [9] was over 100 µM throughout. The TGI in experiment [6], in experiment [7] and in [8] was over 100 µM throughout.
Consider `COCOCC/C=C/C=O`, for which the TGI in experiment [1], in experiment [2], in experiment [3], in experiment [4], in [5] and in experiment [9] was over 100 µM throughout. Besides, the TGI in experiment [6], in experiment [7] and in experiment [8] was over 100 µM in each case.
Turning to `O=C1Nc2ccccc2N=CC1NC(=O)C(c1ccccc1)c1ccccc1` (centres undefined), the TGI in experiment [1], in experiment [2], in experiment [3], in experiment [4], in [5] and in [9] was over 100 µM in each case. Moreover, the TGI in [6], in [7] and in experiment [8] was over 100 µM throughout.
For `N#CC(C#N)c1ccc(C(=O)N2CCC[C@H]2CO)cc1`, the TGI in experiment [1], in experiment [2], in [3], in experiment [4], in [5] and in [9] was over 100 µM each time. For the same compound, the TGI in experiment [6], in experiment [7] and in [8] was over 100 µM throughout.
Take `Nc1c([N+](=O)[O-])nc(Cl)c2nncn12`: the TGI in experiment [1] is over 100 µM; in experiment [2], over 100 µM; in experiment [3], over 68.2 µM; in [4] it was over 100 µM; in [5], over 100 µM; in [9] it was over 69.7 µM. The TGI in experiment [6], in experiment [7] and in experiment [8] was over 100 µM in each case.
For `COCCNC(=O)C1C(=O)C(=O)N(CCOC)C1=O` (centres undefined), the TGI in [1], in experiment [2], in experiment [3], in experiment [4], in [5] and in experiment [6] was over 100 µM throughout. The TGI in [7] and in experiment [8] was over 100 µM throughout.
As to `CC12CCC(=O)N1c1ccc([N+](=O)[O-])cc1N2` (centres undefined), the TGI in [1], in experiment [2], in experiment [3], in experiment [5], in experiment [9] and in experiment [6] was over 100 µM each time. The TGI in experiment [7] and in experiment [8] was over 100 µM each time.
As for `NC(=O)NNC(=O)NC12CC3CC(CC(C3)C1)C2`, the TGI in [1], in [2], in [3], in experiment [4], in experiment [5] and in experiment [6] was over 100 µM in each case. The TGI in experiment [7] and in [8] was over 100 µM in each case.
On to `Cc1ccc(S(=O)(=O)N/N=C(/CC(=O)c2c(C)n([O-])c3ccccc3[n+]2=O)C(=O)Nc2ccccc2C)cc1`, for which the TGI in experiment [1], in experiment [2], in experiment [4], in experiment [5], in [9] and in experiment [6] was over 100 µM throughout. The TGI in [7] and in [8] was over 100 µM in each case.
Regarding `O=C(O)/C=C/c1nc2ccccc2c(=O)o1`, the TGI in experiment [1], in experiment [2], in [3], in [4], in [9] and in experiment [6] was over 100 µM throughout. Besides, the TGI in experiment [8] is over 100 µM.
Regarding `O=C(CC1SC(=Nc2ccccc2Cl)NC1=O)Nc1ccc(Cl)cc1Cl` (centres undefined), the TGI in experiment [1], in [2], in [3], in [4], in experiment [5] and in [9] was over 100 µM throughout. Further, the TGI in [6], in [7] and in experiment [8] was over 100 µM in each case.
Take `N#Cc1ccc(C=NC23CC4CC(CC(C4)C2)C3)cc1`: the TGI in experiment [1], in [2], in experiment [3], in [4], in experiment [5] and in [9] was over 100 µM in each case. In addition, the TGI in experiment [6], in experiment [7] and in [8] was over 100 µM throughout.
For `COc1ccc(/C=C2\CCC(C)(CN(C)C)C2=O)cc1OC` (centres undefined), the TGI in experiment [1], in [2], in experiment [3], in [4], in experiment [5] and in [9] was over 100 µM each time. The TGI in [6], in [7] and in experiment [8] was over 100 µM each time.
Take `CC(C)=CC(=O)N(C)C1C2CN3CCC(O2)C13` (centres undefined): the TGI in [1], in experiment [2], in [3], in [4], in experiment [5] and in experiment [6] was over 100 µM throughout. The TGI in experiment [7] and in [8] was over 100 µM in each case.
Turning to `N#CCN1CCn2c1nsc2=S`, the GI50 in experiment [1] is over 100 µM; in experiment [2], over 100 µM; in [3], 1.6 µM; in experiment [9] it was over 100 µM; in experiment [6], over 100 µM; in [7] it was over 100 µM. In addition, the GI50 in [8] is 44.8 µM. In addition, the TGI in experiment [1], in [2], in [3], in [9], in [6] and in experiment [7] was over 100 µM throughout. For the same compound, the TGI in [8] was over 100 µM.
For the compound `Cc1ccc(NC(=O)CC2C(=O)Nc3ccccc3S2(=O)=O)c(C)c1` (centres undefined), the TGI in [1] worked out at 40.3 µM; in experiment [2] it was 36.8 µM; in [3], 43.2 µM; in experiment [4] it was 30.5 µM; in experiment [5] it was 45.9 µM; in experiment [9], 43.4 µM. Also, the TGI in [6] turned out to be 19.5 µM; in [7], 55 µM; in experiment [8] it was 39.8 µM.
With `CCOC(=O)/C(C#N)=C(O)/C(=C\c1ccc(Br)cc1)NC(=O)c1ccccc1`, the TGI in experiment [1] is over 100 µM; in experiment [2] it was over 100 µM; in [3], over 100 µM; in [4], over 100 µM; in [5], over 100 µM; in experiment [9], 59.6 µM. The values for the TGI in [6], in experiment [7] and in experiment [8] were 51.7 µM, over 100 µM and over 100 µM, respectively.
`N#CC(c1ccccn1)c1nc2ccccc2[nH]1` (centres undefined): the TGI in experiment [1], in experiment [2], in [3], in [4], in [5] and in experiment [9] was over 100 µM throughout. The TGI in [6], in experiment [7] and in experiment [8] was over 100 µM each time.
Regarding `C=CNC(=O)NC(=O)CSc1nnc(-c2ccccc2NC(=O)C(F)(F)F)c(=O)[nH]1`, the TGI in [1] was over 100 µM; in experiment [2], over 100 µM; in experiment [3], over 100 µM; in experiment [4], over 100 µM; in experiment [5], 28.8 µM; in experiment [6], over 100 µM. The same compound displayed a TGI in [8] of over 100 µM.
Consider `O=S(=O)(/C=C/C(=C/c1ccccc1)S(=O)(=O)c1ccccc1)c1ccccc1`, for which the TGI is 3.15 µM in experiment [1]; 4.65 µM in experiment [2]; 3.05 µM in experiment [3]; 3.45 µM in [4]; 3.3 µM in experiment [5]; 3.4 µM in experiment [9]. Also, the values for the TGI in experiment [7] and in experiment [8] were 2.89 µM and 3.22 µM, respectively.
`NC(=O)C(=O)C1CCC2=C(Sc3ccccc3N2)C1=O` (centres undefined): the TGI in [1], in experiment [2], in experiment [4], in [5], in experiment [9] and in [6] was over 100 µM in each case. The TGI in experiment [7] and in [8] was over 100 µM in each case.
